Assay [1] relates to SARS-CoV-2 (USA-WA1/2020), Vero E6 cells.
Assay [2] relates to SARS-CoV-2 Spike protein. In kind it is biochemical.
For assay [3], the system named is SARS-CoV-2 Spike/ACE2; Spike-expressing U2OS cells fusing with ACE2-producing Calu-3 cells. In kind it is cell-based, human cells; SARS-CoV-2 Spike.
The subject of assay [4] is SARS-CoV-2 (USA-WA1/2020), Vero E6 cells. In kind it is cell-based.
Assay [5] deals with SARS-CoV-2 Spike-pseudotyped viruses (HIV-based), H1299 cells. In kind it is cell-based, SARS-CoV-2 Spike (HIV-based pseudovirus); human H1299 cells.
The subject of assay [6] is SARS-CoV-2 Spike protein. The experiment in a line: Differential scanning fluorimetry. The following applies: 1 μM Spike, PBS, Sypro Orange. In kind it is binding. (In DSF a fluorescence change marks the thermal transition of the protein.)
Assay [7] has as its system SARS-CoV-2 Spike pseudovirus. The following applies: cited from earlier work.
Assay [8] relates to human angiotensin-converting enzyme 2 (ACE2 receptor). The following applies: on enterocytes; cited from earlier work.
Where [9] appears, read: micromolar concentrations of defensin.

As usually defined, the IC50 is the point on the concentration scale where inhibition reaches its midpoint. Low values mean higher potency, high ones lower potency. `CC[C@H](C)[C@@H]1NC(=O)CNC(=O)[C@H](CCCCN)NC(=O)CNC(=O)[C@@H]2CSSC[C@H](NC1=O)C(=O)N[C@@H](CCCNC(=N)N)C(=O)N[C@H]1CSSC[C@H](NC(=O)[C@H](CCCNC(=N)N)NC(=O)[C@@H]3CSSC[C@H](NC(=O)[C@H]([C@@H](C)CC)NC1=O)C(=O)NCC(=O)N[C@@H](CCCNC(=N)N)C(=O)NCC(=O)N[C@@H]([C@@H](C)CC)C(=O)N3)C(=O)N[C@@H]([C@@H](C)CC)C(=O)N2` [RC-101]: the “inhibition of SARS-CoV-2 infection” value in assay [1] is “inhibited SARS-CoV-2 infection”. Further, the half-inhibitory concentration (IC50) in assay [1] (USA-WA1/2020), Vero E6 cells, 24 h) turned out to be 29 ± 7.6 µM. In the assay with SARS-CoV-2 Spike protein [2], the “aggregation and precipitation of Spike” value is “partial aggregation and precipitation”. Also, in assay [3], the “inhibition of syncytia formation” value is reported as “strongly inhibited syncytia formation”. Further, the SARS-CoV-2 infectivity result in assay [4] was “strongly inhibited”. In addition, in assay [5], the “effect of serum on inhibition of pseudovirus infection” value is reported as “serum had a negative influence on the inhibitory ability”, the “inhibition of infection after pre-incubation of pseudovirus” value was “significantly inhibited the infection” and the “pseudovirus infection efficiency after pre-treatment of cells” value is reported as “did not affect the pseudovirus infection efficiency”. Also, in the assay on SARS-CoV-2 Spike protein [6], the “Spike destabilization relative to HNP1” value is “less prominent than for HNP1”. For the same molecule, in the assay on SARS-CoV-2 Spike protein [6] (setting [9]), the “destabilization of Spike protein” value is reported as “destabilized” and the “melting peak of Spike” value is “loss of the melting peak at its normal position”.

B1: HD5: enteric human α-defensin HD5 (peptide, UniProt Q01523 20-94, looked up)
Defensin alpha 5: ESLQERADEATTQKQSGEDNQDLAISFAGNGLSALRTSGSQARATCYCRTGRCATRESLSGVCEISGRLYRLCCR
modifications: Defensin-5
Take B1: the “SARS-CoV-2 Spike pseudovirus infection” value in assay [7] is “inhibition of SARS-CoV-2 Spike pseudovirus infection”. For the same molecule, in assay [8], the “binding to human ACE2” value was “binds to human angiotensin-converting enzyme 2”.

These data come from PMC8413479 (Journal of molecular biology, 2021).
